Results as given in patent publication US20230024304A1, “A MULTICOMPONENT COMPOSITION COMPRISING A COLLAGEN, RESVERATROL AND ASTAXANTHIN AND THE USE THEREOF FOR THE TREATMENT OF TENDINOPATHIES” (KOLINPHARMA S.P.A., priority 2019, published 2023).

Tests used:
[1] = system: primary human tenocytes; assay: MTT cytotoxicity test on healthy tenocytes (individual substances and their combination); assay type: cell-based; details: 24 hours
Procedure: The model is based on the use of primary human tenocytes, obtained through isolation from Achilles tendon, purchased from Zen-Bio (TEN-F), cultured and used according to the supplier's instructions. […] Preliminary cytotoxicity studies (i.e. MTT test (3-(4,5-dimethylthiazol-2-yl)-2,5-diphenyltetrazolium bromide) and the subsequent statistical analysis) were conducted on healthy tenocytes treated with the individual substances in order to identify the doses to be used for subsequent experiments, as well as the doses to be mixed to analyse synergism. Cells were seeded in 48 well multiwells, at a density of 6000 cells/well. After 48 ore, they were treated with different concentrations of vitamin C (from 0.88 μg/mL to 352 μg/mL), collagen peptides (from 100 μg/mL to 3000 μg/mL), astaxanthin (from 1 μg/mL to 1000 μg/mL) or resveratrol (from 0.1 μg/mL to 100 μg/mL) for 24 hours. The range of concentrations selected for each substance was determined based on the data reported in literature. The MTT test was conducted at the end of the treatment. […] The formazan deposits in the cells were then solubilised with isopropanol, obtaining a homogeneous solution whose absorbance can thus be measured at the spectrophotometer (absorbance at 510 nm). […]

[2] = system: NF-kB and PI-3K; details: human tenocytes; dose and time-dependent manner; cited from earlier work

Structure (SMILES) | toxicity / cell viability (MTT test) ([1]; at the tested doses (collagen 100-3000 μg/mL, astaxanthin 1-1000 μg/mL), results not reported in detail) | IL-1β-induced activation of NF-kB and PI-3K [2] | effect on cell viability (MTT test) ([1]; resveratrol 50 and 100 μg/ml)
CC1=C(/C=C/C(C)=C/C=C/C(C)=C/C=C/C=C(C)/C=C/C=C(C)/C=C/C2=C(C)C(=O)[C@@H](O)CC2(C)C)C(C)(C)C[C@H](O)C1=O [astaxanthin] | devoid of toxicity |  | 
Oc1ccc(/C=C/c2cc(O)cc(O)c2)cc1 [resveratrol, 5-[(E)-2-(4-hydroxyphenyl)ethenyl]benzene-1,3-diol] |  | capable of suppressing IL-1β-induced activation of NF-kB and PI-3K | negative effect on cell viability
